# Reference: patent publication US20100003250A1, “(2-ARYL-7H-PYRROLO[2,3-D]PYRIMIDIN-4-YL)MORPHOLINE COMPOUNDS, THEIR USE AS MTOR KINASE AND PI3 KINASE INHIBITORS, AND THEIR SYNTHESES” (Wyeth, priority 2008, published 2010)
# pIC50: −log10 of the molar value.
# Tests used:
# Type in all cases: biochemical
# mTOR Kinase (FLAG-TOR) = target: T1, mTOR Kinase (FLAG-TOR) (Homo sapiens, UniProt P42345); test: mTOR kinase assay, purified enzyme, DELFIA format; details: 100 μM ATP, 1.25 μM His6-S6K; read-out: mTOR Kinase Median IC50
# T1 construct: FLAG
# PI3Kα = PI3Kα (Homo sapiens, UniProt P42336); test: PI3K-alpha fluorescence polarization assay; details: 20 μM PIP2, 25 μM ATP; read-out: PI3Kα Median IC50
# PI3Kα, sequence (P42336 whole entry, species assumed): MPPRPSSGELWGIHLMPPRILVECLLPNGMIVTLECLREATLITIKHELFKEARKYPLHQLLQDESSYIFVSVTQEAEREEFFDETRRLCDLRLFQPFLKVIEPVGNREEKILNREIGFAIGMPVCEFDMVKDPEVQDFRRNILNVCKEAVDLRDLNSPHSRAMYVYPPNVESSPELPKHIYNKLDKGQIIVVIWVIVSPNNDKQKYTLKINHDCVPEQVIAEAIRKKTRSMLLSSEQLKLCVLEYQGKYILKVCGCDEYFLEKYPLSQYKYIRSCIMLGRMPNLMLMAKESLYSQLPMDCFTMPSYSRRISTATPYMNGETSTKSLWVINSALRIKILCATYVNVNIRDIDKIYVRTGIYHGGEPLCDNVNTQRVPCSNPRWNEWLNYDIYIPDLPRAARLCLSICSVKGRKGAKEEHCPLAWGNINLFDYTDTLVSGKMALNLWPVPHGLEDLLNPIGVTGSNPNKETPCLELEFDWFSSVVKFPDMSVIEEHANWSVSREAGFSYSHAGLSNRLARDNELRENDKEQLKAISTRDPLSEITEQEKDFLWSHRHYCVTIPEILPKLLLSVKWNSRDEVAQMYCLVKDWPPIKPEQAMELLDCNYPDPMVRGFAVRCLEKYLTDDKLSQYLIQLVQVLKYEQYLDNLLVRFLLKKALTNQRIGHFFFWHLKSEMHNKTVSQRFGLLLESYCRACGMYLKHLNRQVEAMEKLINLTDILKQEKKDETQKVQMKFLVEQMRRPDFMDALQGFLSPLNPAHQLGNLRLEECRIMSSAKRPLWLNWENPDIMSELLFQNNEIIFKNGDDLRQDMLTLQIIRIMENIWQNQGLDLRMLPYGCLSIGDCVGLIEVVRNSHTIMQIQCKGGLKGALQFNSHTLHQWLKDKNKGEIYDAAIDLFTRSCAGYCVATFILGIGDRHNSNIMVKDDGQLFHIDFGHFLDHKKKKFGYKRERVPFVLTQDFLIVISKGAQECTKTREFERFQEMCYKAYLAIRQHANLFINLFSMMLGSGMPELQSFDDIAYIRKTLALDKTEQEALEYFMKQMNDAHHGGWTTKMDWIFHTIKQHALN
# PI3Kα, sequence (P27986 whole entry partner, species assumed): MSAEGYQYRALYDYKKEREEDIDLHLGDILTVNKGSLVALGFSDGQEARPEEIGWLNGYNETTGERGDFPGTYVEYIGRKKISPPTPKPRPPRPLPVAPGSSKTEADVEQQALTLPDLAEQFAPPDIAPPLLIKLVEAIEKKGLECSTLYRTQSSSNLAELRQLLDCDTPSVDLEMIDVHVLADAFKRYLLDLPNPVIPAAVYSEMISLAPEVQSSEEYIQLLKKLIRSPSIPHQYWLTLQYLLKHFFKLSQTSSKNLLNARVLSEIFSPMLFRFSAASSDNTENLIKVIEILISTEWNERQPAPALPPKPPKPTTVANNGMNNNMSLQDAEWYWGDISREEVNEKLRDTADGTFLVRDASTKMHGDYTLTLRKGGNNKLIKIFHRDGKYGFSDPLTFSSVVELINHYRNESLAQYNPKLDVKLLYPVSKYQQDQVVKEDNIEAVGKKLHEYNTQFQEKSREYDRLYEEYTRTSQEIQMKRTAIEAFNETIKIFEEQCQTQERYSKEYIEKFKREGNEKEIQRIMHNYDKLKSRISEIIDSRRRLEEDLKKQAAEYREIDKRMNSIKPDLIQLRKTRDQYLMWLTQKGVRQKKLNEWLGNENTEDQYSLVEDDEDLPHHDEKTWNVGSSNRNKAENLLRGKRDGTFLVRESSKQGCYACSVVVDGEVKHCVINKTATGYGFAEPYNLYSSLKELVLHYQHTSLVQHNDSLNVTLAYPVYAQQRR
# PI3Kγ = PI3Kγ (Homo sapiens, UniProt P48736); test: PI3K-gamma fluorescence polarization assay; details: 20 μM PIP2, 25 μM ATP; read-out: PI3Kγ Median IC50
# PI3Kγ, sequence (P48736 whole entry, species assumed): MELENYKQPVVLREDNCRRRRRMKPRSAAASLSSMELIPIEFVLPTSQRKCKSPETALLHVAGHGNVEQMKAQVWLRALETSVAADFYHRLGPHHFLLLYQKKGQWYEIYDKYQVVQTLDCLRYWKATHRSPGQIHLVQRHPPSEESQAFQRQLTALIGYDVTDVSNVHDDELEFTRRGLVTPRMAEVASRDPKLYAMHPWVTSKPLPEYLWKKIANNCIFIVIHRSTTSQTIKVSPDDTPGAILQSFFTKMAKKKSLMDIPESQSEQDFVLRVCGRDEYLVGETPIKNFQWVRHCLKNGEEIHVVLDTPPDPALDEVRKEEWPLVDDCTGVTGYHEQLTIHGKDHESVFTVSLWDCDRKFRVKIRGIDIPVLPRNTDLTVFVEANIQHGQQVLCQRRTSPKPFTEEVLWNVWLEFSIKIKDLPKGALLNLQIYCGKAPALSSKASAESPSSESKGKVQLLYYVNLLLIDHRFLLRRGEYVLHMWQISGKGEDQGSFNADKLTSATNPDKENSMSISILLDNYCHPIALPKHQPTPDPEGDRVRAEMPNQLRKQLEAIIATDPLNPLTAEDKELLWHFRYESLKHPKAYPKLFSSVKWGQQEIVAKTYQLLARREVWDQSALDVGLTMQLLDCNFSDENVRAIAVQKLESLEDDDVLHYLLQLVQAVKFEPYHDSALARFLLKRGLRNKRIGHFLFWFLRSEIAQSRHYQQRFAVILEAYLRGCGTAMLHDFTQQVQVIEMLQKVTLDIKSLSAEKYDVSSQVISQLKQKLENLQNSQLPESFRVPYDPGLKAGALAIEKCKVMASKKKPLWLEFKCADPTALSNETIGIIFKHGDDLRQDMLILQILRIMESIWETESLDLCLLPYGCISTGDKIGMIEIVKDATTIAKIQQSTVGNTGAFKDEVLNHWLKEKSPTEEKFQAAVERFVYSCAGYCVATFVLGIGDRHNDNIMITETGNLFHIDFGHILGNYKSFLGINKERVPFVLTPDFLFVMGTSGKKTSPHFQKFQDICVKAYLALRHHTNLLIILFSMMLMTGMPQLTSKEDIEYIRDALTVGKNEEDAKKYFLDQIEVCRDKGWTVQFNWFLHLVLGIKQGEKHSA
# Summary of the method: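 Enzyme preincubated with compound in 20 mM HEPES pH 7.5, 2 mM MgCl2, 0.05% CHAPS, 0.01% βME; reaction started with substrate giving 20 μM diC8 PIP2 and 25 μM ATP final, run 30-60 min at room temperature. Stopped with TAMRA-labelled PIP3 detector probe plus GST-GRP; PIP3 formation read by fluorescence polarization after 90-110 min.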
pIC50 (mTOR Kinase (FLAG-TOR)),pIC50 (PI3Kα),pIC50 (PI3Kγ),Compound
9.23,8.37,7.42,"CC(C)n1ccc2c(N3CCOCC3)nc(-c3ccc(NC(=O)Nc4ccc(C(=O)N5CCC(N6CCCC6)CC5)cc4)cc3)nc21 [Compound 88, 1-[4-(7-isopropyl-4-morpholin-4-yl-7H-pyrrolo[2,3-d]pyrimidin-2-yl)phenyl]-3-{4-[(4-pyrrolidin-1-ylpiperidin-1-yl)carbonyl]phenyl}urea]"
8.32,6.93,6.29,"COC(=O)c1ccc(NC(=O)Nc2ccc(-c3nc(N4CCOCC4)c4ccn(C(C)C)c4n3)cc2)cc1 [Compound 89, methyl 4-({[4-(7-isopropyl-4-morpholin-4-yl-7H-pyrrolo[2,3-d]pyrimidin-2-yl)phenyl]carbamoyl}amino)benzoate]"
9.09,7.59,6.82,"CC(C)n1ccc2c(N3CCOCC3)nc(-c3ccc(NC(=O)Nc4ccc(C(=O)O)cc4)cc3)nc21 [Compound 90, 4-({[4-(7-isopropyl-4-morpholin-4-yl-7H-pyrrolo[2,3-d]pyrimidin-2-yl)phenyl]carbamoyl}amino)benzoic acid]"
9.14,8.40,7.30,"CCn1ccc2c(N3CCOCC3)nc(-c3ccc(NC(=O)Nc4ccc(C(=O)N5CCN(C(C)C)CC5)cc4)cc3)nc21 [Compound 91, 1-[4-(7-ethyl-4-morpholin-4-yl-7H-pyrrolo[2,3-d]pyrimidin-2-yl)phenyl]-3-(4-{[4-(1-methylethyl)piperazin-1-yl]carbonyl}phenyl)urea]"
9.17,8.07,7.14,"CCN1CCN(C(=O)c2ccc(NC(=O)Nc3ccc(-c4nc(N5CCOCC5)c5ccn(C(C)C)c5n4)cc3)cc2)CC1 [Compound 92, 1-{4-[(4-ethylpiperazin-1-yl)carbonyl]phenyl}-3-{4-[7-(1-methylethyl)-4-morpholin-4-yl-7H-pyrrolo[2,3-d]pyrimidin-2-yl]phenyl}urea]"
9.03,7.92,7.09,"CC(C)N1CCN(C(=O)c2ccc(NC(=O)Nc3ccc(-c4nc(N5CCOCC5)c5ccn(C(C)C)c5n4)cc3)cc2)CC1 [Compound 93, 1-{4-[7-(1-methylethyl)-4-morpholin-4-yl-7H-pyrrolo[2,3-d]pyrimidin-2-yl]phenyl}-3-(4-{[4-(1-methylethyl)piperazin-1-yl]carbonyl}phenyl)urea]"
5.87,4.96,< 5.00,"CC(C)(C)OC(=O)N1CCC(n2ccc3c(N4CCOCC4)nc(-c4ccc(NC(=O)Nc5cccnc5)cc4)nc32)CC1 [Compound 94, tert-butyl 4-(4-morpholin-4-yl-2-{4-[(pyridin-3-ylcarbamoyl)amino]phenyl}-7H-pyrrolo[2,3-d]pyrimidin-7-yl)piperidine-1-carboxylate]"
8.31,6.85,5.81,"CCn1ccc2c(N3CCOCC3)nc(-c3ccc(NC(=O)NC)cc3)nc21 [Compound 96, 1-[4-(7-ethyl-4-morpholin-4-yl-7H-pyrrolo[2,3-d]pyrimidin-2-yl)phenyl]-3-methylurea]"

# The next lines start with the compound.
Compound,pIC50 (mTOR Kinase (FLAG-TOR)),pIC50 (PI3Kα),pIC50 (PI3Kγ)
"CCn1ccc2c(N3CCOCC3)nc(-c3ccc(NC(=O)Nc4ccc(C(=O)N5CCC(N6CCCCC6)CC5)cc4)cc3)nc21 [Compound 72, 1-[4-(1,4′-bipiperidin-1′-ylcarbonyl)phenyl]-3-[4-(7-ethyl-4-morpholin-4-yl-7H-pyrrolo[2,3-d]pyrimidin-2-yl)phenyl]urea]",8.85,8.46,7.55
"CCn1ccc2c(N3CCOCC3)nc(-c3ccc(NC(=O)Nc4ccc(C(=O)N5CCN(C6CCCC6)CC5)cc4)cc3)nc21 [Compound 73, 1-{4-[(4-cyclopentylpiperazin-1-yl)carbonyl]phenyl}-3-[4-(7-ethyl-4-morpholin-4-yl-7H-pyrrolo[2,3-d]pyrimidin-2-yl)phenyl]urea]",8.47,8.19,7.46
"CCn1ccc2c(N3CCOCC3)nc(-c3ccc(NC(=O)Nc4ccc(C(=O)NCCCN(C)C)cc4)cc3)nc21 [Compound 74, N-[3-(dimethylamino)propyl]-4-({[4-(7-ethyl-4-morpholin-4-yl-7H-pyrrolo[2,3-d]pyrimidin-2-yl)phenyl]carbamoyl}amino)benzamide]",8.92,8.72,7.49
"CCn1ccc2c(N3CCOCC3)nc(-c3ccc(NC(=O)Nc4ccc(C(=O)N5CCN(c6ccccn6)CC5)cc4)cc3)nc21 [Compound 75, 1-[4-(7-ethyl-4-morpholin-4-yl-7H-pyrrolo[2,3-d]pyrimidin-2-yl)phenyl]-3-{4-[(4-pyridin-2-ylpiperazin-1-yl)carbonyl]phenyl}urea]",8.25,8.10,7.44
"CCn1ccc2c(N3CCOCC3)nc(-c3ccc(NC(=O)Nc4ccc(C(=O)NCCN5CCCC5)cc4)cc3)nc21 [Compound 76, 4-({[4-(7-ethyl-4-morpholin-4-yl-7H-pyrrolo[2,3-d]pyrimidin-2-yl)phenyl]carbamoyl}amino)-N-(2-pyrrolidin-1-ylethyl)benzamide]",9.14,8.70,7.42
"CCn1ccc2c(N3CCOCC3)nc(-c3ccc(NC(=O)Nc4ccc(C(=O)N5CCC(N6CCOCC6)CC5)cc4)cc3)nc21 [Compound 77, 1-[4-(7-ethyl-4-morpholin-4-yl-7H-pyrrolo[2,3-d]pyrimidin-2-yl)phenyl]-3-{4-[(4-morpholin-4-ylpiperidin-1-yl)carbonyl]phenyl}urea]",8.76,8.26,7.19
"CCn1ccc2c(N3CCOCC3)nc(-c3ccc(NC(=O)Nc4ccc(C(=O)NCCOC)cc4)cc3)nc21 [Compound 78, 4-({[4-(7-ethyl-4-morpholin-4-yl-7H-pyrrolo[2,3-d]pyrimidin-2-yl)phenyl]carbamoyl}amino)-N-(2-methoxyethyl)benzamide]",8.94,8.02,6.93
"CC(C)n1ccc2c(N3CCOCC3)nc(-c3ccc(NC(=O)Nc4ccncc4)cc3)nc21 [Compound 79, 1-[4-(7-isopropyl-4-morpholin-4-yl-7H-pyrrolo[2,3-d]pyrimidin-2-yl)phenyl]-3-pyridin-4-ylurea]",8.94,7.55,6.71
"CC(C)n1ccc2c(N3CCOCC3)nc(-c3ccc(NC(=O)Nc4ccc(N5CCN(C)CC5)cc4)cc3)nc21 [Compound 80, 1-[4-(7-isopropyl-4-morpholin-4-yl-7H-pyrrolo[2,3-d]pyrimidin-2-yl)phenyl]-3-[4-(4-methylpiperazin-1-yl)phenyl]urea]",8.55,7.33,6.87
"CC(C)n1ccc2c(N3CCOCC3)nc(-c3ccc(NC(=O)Nc4ccc(OCCN(C)C)cc4)cc3)nc21 [Compound 81, 1-{4-[2-(dimethylamino)ethoxy]phenyl}-3-[4-(7-isopropyl-4-morpholin-4-yl-7H-pyrrolo[2,3-d]pyrimidin-2-yl)phenyl]urea]",8.53,7.47,6.66
"CC(C)n1ccc2c(N3CCOCC3)nc(-c3ccc(NC(=O)Nc4ccc(C(=O)N5CCN(C)CC5)cc4)cc3)nc21 [Compound 82, 1-[4-(7-isopropyl-4-morpholin-4-yl-7H-pyrrolo[2,3-d]pyrimidin-2-yl)phenyl]-3-{4-[(4-methylpiperazin-1-yl)carbonyl]phenyl}urea]",8.82,8.48,7.42
"CC(C)n1ccc2c(N3CCOCC3)nc(-c3ccc(NC(=O)Nc4ccc(C(=O)N5CCNCC5)cc4)cc3)nc21 [Compound 83, 1-[4-(7-isopropyl-4-morpholin-4-yl-7H-pyrrolo[2,3-d]pyrimidin-2-yl)phenyl]-3-[4-(piperazin-1-ylcarbonyl)phenyl]urea]",9.19,> 8.64,7.89
"CC(C)n1ccc2c(N3CCOCC3)nc(-c3ccc(NC(=O)Nc4ccc(C(=O)N5CCC(N(C)C)CC5)cc4)cc3)nc21 [Compound 84, 1-(4-{[4-(dimethylamino)piperidin-1-yl]carbonyl}phenyl)-3-[4-(7-isopropyl-4-morpholin-4-yl-7H-pyrrolo[2,3-d]pyrimidin-2-yl)phenyl]urea]",9.10,8.40,7.42
"CC(C)n1ccc2c(N3CCOCC3)nc(-c3ccc(NC(=O)Nc4ccc(C(=O)N(C)CCN(C)C)cc4)cc3)nc21 [Compound 85, N-[2-(dimethylamino)ethyl]-4-({[4-(7-isopropyl-4-morpholin-4-yl-7H-pyrrolo[2,3-d]pyrimidin-2-yl)phenyl]carbamoyl}amino)-N-methylbenzamide]",9.21,> 8.74,7.47
"CC(C)n1ccc2c(N3CCOCC3)nc(-c3ccc(NC(=O)Nc4ccc(C(=O)NCCN(C)C)cc4)cc3)nc21 [Compound 86, N-[2-(dimethylamino)ethyl]-4-({[4-(7-isopropyl-4-morpholin-4-yl-7H-pyrrolo[2,3-d]pyrimidin-2-yl)phenyl]carbamoyl}amino)benzamide]",9.42,8.77,7.30
"CC(C)n1ccc2c(N3CCOCC3)nc(-c3ccc(NC(=O)Nc4ccc(C(=O)NCCN5CCCC5)cc4)cc3)nc21 [Compound 87, 4-({[4-(7-isopropyl-4-morpholin-4-yl-7H-pyrrolo[2,3-d]pyrimidin-2-yl)phenyl]carbamoyl}amino)-N-(2-pyrrolidin-1-ylethyl)benzamide]",9.26,8.30,7.06
